Data on 3 compounds can be found in patent US9512126B2, “Substituted imidazopyridazines” (Bayer Intellectual Property GmbH, priority 2012, dated 2016).

Structures are written as SMILES.

A short description of series [1]: In vitro metabolic stability in rat hepatocytes (including calculation of hepatic in vivo blood clearance). The note with it: Han Wistar, hepatocytes (freshly isolated, suspension), read-out: CL (hepatic in vivo blood clearance) (converted). The class given is in vitro ADME. As for the experimental part:
Investigation of In Vitro Metabolic Stability in Rat Hepatocytes (Including Calculation of Hepatic In Vivo Blood Clearance (CL))
Hepatocytes from Han Wistar rats were isolated via a 2-step perfusion method. After perfusion, the liver was carefully removed from the rat: the liver capsule was opened and the hepatocytes were gently shaken out into a Petri dish with ice-cold WME. The resulting cell suspension was filtered through sterile gaze in 50 ml falcon tubes and centrifuged at 50×g for 3 min at room temperature. The cell pellet was resuspended in 30 ml WME and centrifuged through a Percoll® gradient for 2 times at 100×g. The hepatocytes were washed again with Williams' medium E (WME) and resuspended in medium containing 5% FCS. Cell viability was determined by trypan blue exclusion.
For the metabolic stability assay liver cells were distributed in WME containing 5% FCS to glass vials at a density of 1.0×10^6 vital cells/ml. The test compound was added to a final concentration of 1 μM. During incubation, the hepatocyte suspensions were continuously shaken and aliquots were taken at 2, 8, 16, 30, 45 and 90 min, to which equal volumes of cold methanol were immediately added.
Samples were frozen at −20° C. over night, after subsequently centrifuged for 15 minutes at 3000 rpm and the supernatant was analyzed with an Agilent 1200 HPLC-system with LCMS/MS detection.
The half-life of a test compound was determined from the concentration-time plot. From the half-life the intrinsic clearances were calculated. Together with the additional parameters liver blood flow, amount of liver cells in vivo and in vitro. The hepatic in vivo blood clearance (CL) and the maximal oral bioavailability (Fmax) was calculated. The following parameter values were used: Liver blood flow—4.2 L/h/kg rat; specific liver weight—32 g/kg rat body weight; liver cells in vivo—1.1×10^8 cells/g liver, liver cells in vitro—0.5×10^6 ml.

The target in the next series is human kinase Mps-1 (Homo sapiens (Human), UniProt P33981). As to the kind of experiment: Mps-1 kinase assay (TR-FRET). The format is biochemical. The note with it: N-terminally GST-tagged human full length recombinant Mps-1, 10 μM ATP. As for the experimental part: The human kinase Mps-1 phosphorylates a biotinylated substrate peptide. Detection of the phosphorylated product is achieved by time-resolved fluorescence resonance energy transfer (TR-FRET) from Europium-labelled anti-phospho-Serine/Threonine antibody as donor to streptavidin labelled with cross-linked allophycocyanin (SA-XLent) as acceptor. Compounds are tested for their inhibition of the kinase activity.
Chain of human kinase Mps-1 (P33981 whole entry): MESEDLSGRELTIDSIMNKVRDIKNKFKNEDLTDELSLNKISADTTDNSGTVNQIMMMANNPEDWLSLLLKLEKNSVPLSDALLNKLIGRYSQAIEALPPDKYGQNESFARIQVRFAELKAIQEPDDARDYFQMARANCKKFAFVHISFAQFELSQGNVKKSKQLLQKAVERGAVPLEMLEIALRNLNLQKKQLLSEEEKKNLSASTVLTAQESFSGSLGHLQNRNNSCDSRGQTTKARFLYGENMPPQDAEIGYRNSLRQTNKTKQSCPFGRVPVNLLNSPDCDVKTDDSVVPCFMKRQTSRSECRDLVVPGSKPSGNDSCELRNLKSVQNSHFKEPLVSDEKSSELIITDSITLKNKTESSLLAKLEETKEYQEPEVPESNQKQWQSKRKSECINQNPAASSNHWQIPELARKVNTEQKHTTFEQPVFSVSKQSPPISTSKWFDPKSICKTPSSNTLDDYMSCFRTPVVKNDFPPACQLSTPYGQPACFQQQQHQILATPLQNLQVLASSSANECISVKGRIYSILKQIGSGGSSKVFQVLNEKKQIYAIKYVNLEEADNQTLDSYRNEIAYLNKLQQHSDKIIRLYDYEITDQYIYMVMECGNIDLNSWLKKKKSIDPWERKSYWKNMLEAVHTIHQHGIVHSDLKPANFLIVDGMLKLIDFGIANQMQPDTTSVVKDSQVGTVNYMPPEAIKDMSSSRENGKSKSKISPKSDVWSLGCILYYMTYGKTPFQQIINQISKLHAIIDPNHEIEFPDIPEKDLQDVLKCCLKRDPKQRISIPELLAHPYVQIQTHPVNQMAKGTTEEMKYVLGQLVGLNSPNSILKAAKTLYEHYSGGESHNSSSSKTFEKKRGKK
N-terminally GST-tagged human full length recombinant Mps-1 kinase (purchased from Invitrogen, Karslruhe, Germany, cat. no PV4071) was used. As substrate for the kinase reaction a biotinylated peptide of the amino-acid sequence […] (C-terminus in amide form, purchased from Biosynthan GmbH, Berlin) was used.
The concentration of Mps-1 in the assay was adjusted to the activity of the enzyme lot and was chosen appropriate to have the assay in the linear range, typical enzyme concentrations were in the range of about 1 nM (final conc. in the 5 μl assay volume).
The resulting mixture was incubated 1 h at 22° C. to allow the binding of the phosphorylated peptide to the anti-phospho(Ser/Thr)-Europium-antibody. Subsequently the amount of phosphorylated substrate was evaluated by measurement of the resonance energy transfer from the Europium-labelled anti-phospho(Ser/Thr) antibody to the Streptavidin-XLent.
In general terms: In TR-FRET formats the signal depends on donor and acceptor labels being close together.

As a reminder, the IC50 is the concentration that inhibits the measured activity by half. For the compound `Cc1cc(-c2cnc3c(NCCC(F)(F)F)cc(C(F)(F)c4cccc(F)c4)nn23)ccc1C(=O)NC1CC1` [Example 6, N-Cyclopropyl-4-{6-[difluoro(3-fluorophenyl)methyl]-8-[(3,3,3-trifluoropropyl)amino]imidazo[1,2-b]pyridazin-3-yl}-2-methylbenzamide], the CLhep predicted at 1 μM in series [1] was 21.7 mL/min/kg. The IC50 at human kinase Mps-1 turned out to be 700 pM. With `Cc1cc(-c2cnc3c(NCCC(F)(F)F)cc(C(=O)c4cccc(F)c4F)nn23)ccc1C(=O)NC1CC1` [Example 14, N-Cyclopropyl-4-{6-(2,3-difluorobenzoyl)-8-[(3,3,3-trifluoropropyl)amino]imidazo[1,2-b]pyridazin-3-yl}-2-methylbenzamide], the CLhep predicted at 1 μM in series [1] was 35 mL/min/kg.

Regarding `COc1ccc(Cc2cc(NCCC(F)(F)F)c3ncc(-c4ccc(C(=O)NC5CC5)c(C)c4)n3n2)cc1` [Comparative Example 5, N-Cyclopropyl-4-{6-(4-methoxybenzyl)-8-[(3,3,3-trifluoropropyl)amino]imidazo[1,2-b]pyridazin-3-yl}-2-methylbenzamide, reference compound], the CLhep predicted at 1 μM in series [1] was 45 mL/min/kg.
